Experimental data as given in patent US11407736B2 (priority 2019, dated 2022).
Where two headings read alike, the source gives them in different places.

What was measured:
[1] = test system: U937 cells; experiment: U937 cell necroptosis assay (TNFa + zVAD, CellTiter-Glo); format: cell-based, human; details: Homo sapiens, U-937, U937 cells, TNFa + zVAD; read-out: U937 Zvad TNF CTG Recovery, U937, TNFa + zVAD (IC50)
Method in brief: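 Human U937 and murine L929 cells in RPMI 1640/10% FBS were pre-incubated 1 h at 37 °C with serially diluted compound plus zVAD-fmk (U937 plated with 60 uM, L929 medium with 40 uM), then stimulated with 2 ng/mL TNFa (final). Viability read by CellTiter-Glo luminescence after 18 h.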

[2] = test system: L929 cells; experiment: L929 cell necroptosis assay (TNFa + zVAD, CellTiter-Glo); format: cell-based, murine; details: Mus musculus, TNFa + zVAD, read-out: L929-CTG-recovery, L929, TNFa + zVAD (IC50)
Method in brief: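 Murine L929 cells, plated 18 h beforehand at 10K cells/well in RPMI 1640 with 10% FBS, were switched to medium containing 40 uM zVAD-fmk and given compound from 4-fold serial dilutions. Viability after 18 h of TNFa stimulation at 37° C was read by CellTiter-Glo luminescence.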

[3] = target: RIPK1 (Homo sapiens (Human), UniProt Q13546); experiment: RIPK1 ADP-Glo biochemical kinase assay; details: read-out: RIPK1 ADP-Glo Kinase (IC50)
Sequence of RIPK1 (Q13546 whole entry, species assumed): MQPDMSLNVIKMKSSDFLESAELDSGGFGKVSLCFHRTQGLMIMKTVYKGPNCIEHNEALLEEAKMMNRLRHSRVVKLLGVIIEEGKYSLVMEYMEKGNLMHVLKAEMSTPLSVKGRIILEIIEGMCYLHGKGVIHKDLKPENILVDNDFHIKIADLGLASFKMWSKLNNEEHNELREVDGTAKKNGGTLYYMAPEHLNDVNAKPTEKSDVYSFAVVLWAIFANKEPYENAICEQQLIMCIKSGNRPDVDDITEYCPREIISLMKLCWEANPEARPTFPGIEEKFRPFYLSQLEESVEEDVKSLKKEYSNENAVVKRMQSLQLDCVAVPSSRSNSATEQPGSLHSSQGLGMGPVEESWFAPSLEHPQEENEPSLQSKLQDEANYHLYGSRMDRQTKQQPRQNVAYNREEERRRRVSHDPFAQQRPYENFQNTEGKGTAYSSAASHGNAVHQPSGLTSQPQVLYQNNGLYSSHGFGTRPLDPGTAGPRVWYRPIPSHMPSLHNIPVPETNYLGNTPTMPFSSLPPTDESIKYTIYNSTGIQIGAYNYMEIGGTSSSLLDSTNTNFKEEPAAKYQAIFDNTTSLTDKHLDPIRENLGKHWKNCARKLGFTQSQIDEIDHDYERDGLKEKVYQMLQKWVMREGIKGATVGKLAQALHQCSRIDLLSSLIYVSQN
Procedure: The final reaction volume was 5.0ul.
Adding 5 μl of ADP-Glo™ terminated the reaction.

SMILES | IC50 [1] | IC50 ([2]; L929, L929 cells) | IC50 [3] | IC50 ([2]; L929 cells)
CN1C(=O)[C@@H](NC(=O)c2ncn(Cc3ccccc3)n2)COc2ccc(C#CCCOc3cccc4ncccc34)cc21 [Compound I-44, (S)-1-benzyl-N-(5-methyl-4-oxo-7-(4-(quinolin-5-yloxy)but-1-yn-1-yl)-2,3,4,5-tetrahydrobenzo[b][1,4]oxazepin-3-yl)-1H-1,2,4-triazole-3-carboxamide] | 1.1 nM | 0.2 nM | 34 nM | –
CN1C(=O)[C@@H](NC(=O)c2n[nH]c(Cc3ccccc3)n2)COc2ccc(C#CCCOc3cccc4ncccc34)cc21 [Compound I-45, (S)-5-benzyl-N-(5-methyl-4-oxo-7-(4-(quinolin-5-yloxy)but-1-yn-1-yl)-2,3,4,5-tetrahydrobenzo[b][1,4]oxazepin-3-yl)-1H-1,2,4-triazole-3-carboxamide] | 1.4 nM | 0.3 nM | 82.5 nM | –
CN1C(=O)[C@@H](NC(=O)c2ncn(Cc3ccccc3)n2)COc2ccc(CN3CCn4c(nnc4C(F)(F)F)C3)cc21 [Compound I-46, (S)-1-benzyl-N-(5-methyl-4-oxo-7-((3-(trifluoromethyl)-5,6-dihydro-[1,2,4]triazolo[4,3-a]pyrazin-7(8H)-yl)methyl)-2,3,4,5-tetrahydrobenzo[b][1,4]oxazepin-3-yl)-1H-1,2,4-triazole-3-carboxamide] | 1.2 nM | 0.4 nM | 43.7 nM | –
CN1C(=O)[C@@H](NC(=O)c2n[nH]c(Cc3ccccc3)n2)COc2ccc(CN3CCn4c(nnc4C(F)(F)F)C3)cc21 [Compound I-47, (S)-5-benzyl-N-(5-methyl-4-oxo-7-((3-(trifluoromethyl)-5,6-dihydro-[1,2,4]triazolo[4,3-a]pyrazin-7(8H)-yl)methyl)-2,3,4,5-tetrahydrobenzo[b][1,4]oxazepin-3-yl)-1H-1,2,4-triazole-3-carboxamide] | 4.6 nM | 1.5 nM | 68.3 nM | –
CN1C(=O)[C@@H](NC(=O)c2ncn(Cc3ccccc3)n2)COc2ccc(C#CC(C)(C)C)cc21 [Compound I-48, (S)-1-benzyl-N-(7-(3,3-dimethylbut-1-yn-1-yl)-5-methyl-4-oxo-2,3,4,5-tetrahydrobenzo[b][1,4]oxazepin-3-yl)-1H-1,2,4-triazole-3-carboxamide] | 1.6 nM | – | 62.4 nM | 0.5 nM
CN1C(=O)[C@@H](NC(=O)c2n[nH]c(Cc3ccccc3)n2)COc2ccc(C#CC(C)(C)C)cc21 [Compound I-49, (S)-5-benzyl-N-(7-(3,3-dimethylbut-1-yn-1-yl)-5-methyl-4-oxo-2,3,4,5-tetrahydrobenzo[b][1,4]oxazepin-3-yl)-1H-1,2,4-triazole-3-carboxamide] | 5 nM | 1.2 nM | 60.4 nM | –
CN1C(=O)[C@@H](NC(=O)c2ncn(Cc3ccccc3)n2)COc2ccc(C#CC3(O)CCC3)cc21 [Compound I-50, (S)-1-benzyl-N-(7-((1-hydroxycyclobutyl)ethynyl)-5-methyl-4-oxo-2,3,4,5-tetrahydrobenzo[b][1,4]oxazepin-3-yl)-1H-1,2,4-triazole-3-carboxamide] | 1.1 nM | – | 23.4 nM | 0.3 nM
CN1C(=O)[C@@H](NC(=O)c2ncn(Cc3ccccc3)n2)COc2ccc(C#CC3(O)CCCC3)cc21 [Compound I-52, (S)-1-benzyl-N-(7-((1-hydroxycyclopentyl)ethynyl)-5-methyl-4-oxo-2,3,4,5-tetrahydrobenzo[b][1,4]oxazepin-3-yl)-1H-1,2,4-triazole-3-carboxamide] | 0.9 nM | 0.3 nM | 24.9 nM | –
CN1C(=O)[C@@H](NC(=O)c2n[nH]c(Cc3ccccc3)n2)COc2ccc(C#CC3(O)CCCC3)cc21 [Compound I-53, (S)-5-benzyl-N-(7-((1-hydroxycyclopentyl)ethynyl)-5-methyl-4-oxo-2,3,4,5-tetrahydrobenzo[b][1,4]oxazepin-3-yl)-1H-1,2,4-triazole-3-carboxamide] | 1.8 nM | 0.5 nM | 34 nM | –
CN1C(=O)[C@@H](NC(=O)c2ncn(Cc3ccccc3)n2)COc2ccc(C#CC3(O)CCOCC3)cc21 [Compound I-54, (S)-1-benzyl-N-(7-((4-hydroxytetrahydro-2H-pyran-4-yl)ethynyl)-5-methyl-4-oxo-2,3,4,5-tetrahydrobenzo[b][1,4]oxazepin-3-yl)-1H-1,2,4-triazole-3-carboxamide] | 0.9 nM | 0.3 nM | 26.9 nM | –
CN1C(=O)[C@@H](NC(=O)c2n[nH]c(Cc3ccccc3)n2)COc2ccc(C#CC3(O)CCOCC3)cc21 [Compound I-55, (S)-5-benzyl-N-(7-((4-hydroxytetrahydro-2H-pyran-4-yl)ethynyl)-5-methyl-4-oxo-2,3,4,5-tetrahydrobenzo[b][1,4]oxazepin-3-yl)-1H-1,2,4-triazole-3-carboxamide] | 2 nM | 0.6 nM | 33.7 nM | –
CN1C(=O)[C@@H](NC(=O)c2n[nH]c(Cc3ccccc3)n2)COc2ccc(C#CC3(O)COC3)cc21 [Compound I-57, (S)-5-benzyl-N-(7-((3-hydroxyoxetan-3-yl)ethynyl)-5-methyl-4-oxo-2,3,4,5-tetrahydrobenzo[b][1,4]oxazepin-3-yl)-1H-1,2,4-triazole-3-carboxamide] | 3 nM | 0.9 nM | 21.5 nM | –
CN1C(=O)[C@@H](NC(=O)c2ncn(Cc3ccccc3)n2)COc2ccc(C#CC3(O)COC3)cc21 [Compound I-58, (S)-1-benzyl-N-(7-((3-hydroxyoxetan-3-yl)ethynyl)-5-methyl-4-oxo-2,3,4,5-tetrahydrobenzo[b][1,4]oxazepin-3-yl)-1H-1,2,4-triazole-3-carboxamide] | 0.8 nM | 0.2 nM | 11 nM | –
C=C(C)C#Cc1ccc2c(c1)N(C)C(=O)[C@@H](NC(=O)c1n[nH]c(Cc3ccccc3)n1)CO2 [Compound I-59, (S)-5-benzyl-N-(5-methyl-7-(3-methylbut-3-en-1-yn-1-yl)-4-oxo-2,3,4,5-tetrahydrobenzo[b][1,4]oxazepin-3-yl)-1H-1,2,4-triazole-3-carboxamide] | 1.9 nM | 0.7 nM | 57.9 nM | –
CC(C)CCc1ccc2c(c1)N(C)C(=O)[C@@H](NC(=O)c1n[nH]c(Cc3ccccc3)n1)CO2 [Compound I-60, (S)-5-benzyl-N-(7-isopentyl-5-methyl-4-oxo-2,3,4,5-tetrahydrobenzo[b][1,4]oxazepin-3-yl)-1H-1,2,4-triazole-3-carboxamide] | 4.8 nM | 2.4 nM | 64.4 nM | –
COC(C)(C)C#Cc1ccc2c(c1)N(C)C(=O)[C@@H](NC(=O)c1n[nH]c(Cc3ccccc3)n1)CO2 [Compound I-61, (S)-5-benzyl-N-(7-(3-methoxy-3-methylbut-1-yn-1-yl)-5-methyl-4-oxo-2,3,4,5-tetrahydrobenzo[b][1,4]oxazepin-3-yl)-1H-1,2,4-triazole-3-carboxamide] | 3.4 nM | 1.3 nM | 65.4 nM | –
CN1C(=O)[C@@H](NC(=O)c2ncn(Cc3ccccc3)n2)COc2cc(C#CC(C)(C)O)ccc21 [Compound I-62, (S)-1-benzyl-N-(8-(3-hydroxy-3-methylbut-1-yn-1-yl)-5-methyl-4-oxo-2,3,4,5-tetrahydrobenzo[b][1,4]oxazepin-3-yl)-1H-1,2,4-triazole-3-carboxamide] | 2 nM | 0.7 nM | 35.5 nM | –
CN1C(=O)[C@@H](NC(=O)c2n[nH]c(Cc3ccccc3)n2)COc2cc(C#CC(C)(C)O)ccc21 [Compound I-63, (S)-5-benzyl-N-(8-(3-hydroxy-3-methylbut-1-yn-1-yl)-5-methyl-4-oxo-2,3,4,5-tetrahydrobenzo[b][1,4]oxazepin-3-yl)-1H-1,2,4-triazole-3-carboxamide] | 1 nM | 0.3 nM | 30.3 nM | –
CN1C(=O)[C@@H](NC(=O)c2cc(Oc3ccccc3)ccn2)COc2cc(C#CC(C)(C)O)ccc21 [Compound I-64, (S)—N-(8-(3-hydroxy-3-methylbut-1-yn-1-yl)-5-methyl-4-oxo-2,3,4,5-tetrahydrobenzo[b][1,4]oxazepin-3-yl)-4-phenoxypicolinamide] | 0.5 nM | 0.1 nM | 19 nM | –
CN1C(=O)[C@@H](NC(=O)c2n[nH]c(Cc3c(Cl)cccc3Cl)n2)COc2ccc(C#CC(C)(C)O)cc21 [Compound I-65, (S)-5-(2,6-dichlorobenzyl)-N-(7-(3-hydroxy-3-methylbut-1-yn-1-yl)-5-methyl-4-oxo-2,3,4,5-tetrahydrobenzo[b][1,4]oxazepin-3-yl)-1H-1,2,4-triazole-3-carboxamide] | 42 nM | 41.5 nM | 63.9 nM | –
CN1C(=O)[C@@H](NC(=O)c2n[nH]c(Cc3ccccc3)n2)COc2cc(CN3CCn4nc(C(F)(F)F)nc4C3)ccc21 [Compound I-66, (S)-5-benzyl-N-(5-methyl-4-oxo-8-((2-(trifluoromethyl)-5,6-dihydro-[1,2,4]triazolo[1,5-a]pyrazin-7(8H)-yl)methyl)-2,3,4,5-tetrahydrobenzo[b][1,4]oxazepin-3-yl)-1H-1,2,4-triazole-3-carboxamide] | 189 nM | 94.9 nM | 79.4 nM | –
